Drawing on patent US7642251B2, “Compounds for the treatment of hepatitis C” (Bristol-Myers Squibb Company, priority 2007, dated 2010), this text covers EC50 and IC50 for 18 molecules.

One test has as its system HCV replicon cells. Put plainly: HCV replicon FRET assay. It counts as cell-based. The note with it: Hepatitis C virus; FRET assay; read-out: EC50. An excerpt:
FRET Assay Preparation. To perform the HCV FRET screening assay, 96-well cell culture plates were used. The FRET peptide (Anaspec, Inc.) (Taliani et al., Anal. Biochem. 1996, 240, 60-67) contains a fluorescence donor, EDANS, near one end of the peptide and an acceptor, DABCYL, near the other end. The fluorescence of the peptide is quenched by […] resonance energy transfer (RET) between the donor and the acceptor, but as the NS3 protease cleaves the peptide the products are released from RET quenching and the fluorescence of the donor becomes apparent. The assay reagent was made as follows: 5× cell Luciferase cell culture lysis reagent from Promega (#E153A) diluted to 1× with dH2O, NaCl added to 150 mM final, the FRET peptide diluted to 20 μM final from a 2 mM stock.
To prepare plates, HCV replicon cells, with or without a Renilla luciferase reporter gene, were trypsinized and placed into each well of a 96-well plate with titrated test compounds added in columns 3 through 12; columns 1 and 2 contained a control compound (HCV protease inhibitor), and the bottom row contained cells without compound. The plates were then placed in a CO2 incubator at 37° C.
Assays. Subsequent to addition of the test compounds described above (FRET Assay Preparation), at various times the plate was removed and Alamar blue solution (Trek Diagnostics, #00-100) was added per well as a measure of cellular toxicity. After reading in a Cytoflour 4000 instrument (PE Biosystems), plates were rinsed with PBS and then used for FRET assay by the addition of 30 ul of the FRET peptide assay reagent described above (FRET Assay Preparation) per well. The plate was then placed into the Cytoflour 4000 instrument which had been set to 340 excite/490 emission, automatic mode for 20 cycles and the plate read in a kinetic mode. Typically, the signal to noise using an endpoint analysis after the reads was at least three-fold. Alternatively, after Alamar blue reading, plates were rinsed with PBS, 50 ul of DMEM (high glucose) without phenol red was added and plates were then used for luciferase assay using the Promega Dual-Glo Luciferase Assay System.
Compound analysis was determined by quantification of the relative HCV replicon inhibition and the relative cytotoxicity values. To calculate cytoxicity values, the average Alamar Blue fluorescence signals from the control wells were set as 100% non-toxic. The individual signals in each of the compound test wells were then divided by the average control signal and multiplied by 100% to determine […]. To calculate the HCV replicon inhibition values, an average background value was obtained from the two wells containing the highest amount of HCV protease inhibitor at the end of the assay period. These numbers were similar to those obtained from naïve Huh-7 cells.
The background numbers were then subtracted from the average signal obtained from the control wells and this number was used as 100% activity. The individual signals in each of the compound test wells were then divided by the averaged control values after background subtraction and multiplied by 100% to determine percent activity. EC50 values for a protease inhibitor titration were calculated as the concentration which caused a 50% reduction in FRET or luciferase activity. The two numbers generated for the compound plate, percent cytoxicity and percent activity were used to determine compounds of interest for further analysis.
For orientation: Replicon systems follow genome replication, usually without infectious particles.

For the next test, the target named is T1, HCV NS5B (Hepatitis C virus genotype 1b, UniProt Q9WMX2).
T1 construct: The cDNA encoding the NS5B protein of HCV, genotype 1b; made in house; host or cells: E. coli BL21(DE3)
The test can be described thus: Modified HCV NS5B RdRp enzyme assay (preincubation protocol). The note with it: preincubation protocol; read-out: IC50. Type of test: biochemical. Here is the method:
HCV NS5B RdRp cloning, expression, and purification. The cDNA encoding the NS5B protein of HCV, genotype 1b, was cloned into the pET21a expression vector. The protein was expressed with an 18 amino acid C-terminal truncation to enhance the solubility. The E. coli competent cell line BL21(DE3) was used for expression of the protein. Cultures were grown at 37° C. for ˜4 hours until the cultures reached an optical density of 2.0 at 600 nm. The cultures were cooled to 20° C. and induced with 1 mM IPTG. Fresh ampicillin was added to a final concentration of 50 μg/ml and the cells were grown overnight at 20° C.
Cell pellets (3 L) were lysed for purification to yield 15-24 mgs of purified NS5B. The lysis buffer consisted of 20 mM Tris-HCl, pH 7.4, 500 mM NaCl, 0.5% triton X-100, 1 mM DTT, 1 mM EDTA, 20% glycerol, 0.5 mg/ml lysozyme, 10 mM MgCl2, 15 ug/ml deoxyribonuclease I, and Complete™ protease inhibitor tablets (Roche). After addition of the lysis buffer, frozen cell pellets were resuspended using a tissue homogenizer. To reduce the viscosity of the sample, aliquots of the lysate were sonicated on ice using a microtip attached to a Branson sonicator. The sonicated lysate was centrifuged at 100,000×g for 1 hr at 4° C. and filtered through a 0.2 μm filter unit (Corning).
The protein was purified using three sequential chromatography steps: Heparin sepharose CL-6B, polyU sepharose 4B, and Hitrap SP sepharose (Pharmacia). The chromatography buffers were identical to the lysis buffer but contained no lysozyme, deoxyribonuclease I, MgCl2 or protease inhibitor and the NaCl concentration of the buffer was adjusted according to the requirements for charging the protein onto the column. Each column was eluted with a NaCl gradient which varied in length from 5-50 column volumes depending on the column type. After the final chromatography step, the resulting purity of the enzyme is >90% based on SDS-PAGE analysis. The enzyme was aliquoted and stored at −80° C.
Standard HCV NS5B RdRp enzyme assay. HCV RdRp genotype 1b assays were run in a final volume of 60 μl in 96 well plates (Costar 3912). The assay buffer is composed of 20 mM Hepes, pH 7.5, 2.5 mM KCl, 2.5 mM MgCl2, 1 mM DTT, 1.6 U RNAse inhibitor (Promega N2515), 0.1 mg/ml BSA (Promega R3961), and 2% glycerol. All compounds were serially diluted (3-fold) in DMSO and diluted further in water such that the final concentration of DMSO in the assay was 2%. HCV RdRp genotype 1b enzyme was used at a final concentration of 28 nM. A polyA template was used at 6 nM, and a biotinylated oligo-dT12 primer was used at 180 nM final concentration. Template was obtained commercially (Amersham 27-4110). Biotinylated primer was prepared by Sigma Genosys. 3H-UTP was used at 0.6 μCi (0.29 μM total UTP). Reactions were initiated by the addition of enzyme, incubated at 30° C. for 60 min, and stopped by adding 25 μl of 50 mM EDTA containing SPA beads (4 μg/μl, Amersham RPNQ 0007). Plates were read on a Packard Top Count NXT after >1 hr incubation at room temperature.
Modified HCV NS5B RdRp enzyme assay. A modified enzyme assay was performed essentially as described for the standard enzyme assay except for the following: The biotinylated oligo dT12 primer was precaptured on streptavidin-coated SPA beads by mixing primer and beads in assay buffer and incubating at room temperature for one hour. Unbound primer was removed after centrifugation. The primer-bound beads were resuspended in 20 mM Hepes buffer, pH 7.5 and used in the assay at final concentrations of 20 nM primer and 0.67 μg/μl beads. Order of addition in the assay: enzyme (14 nM) was added to diluted compound followed by the addition of a mixture of template (0.2 nM), 3H-UTP (0.6 μCi, 0.29 μM), and primer-bound beads, to initiate the reaction; concentrations given are final. Reactions were allowed to proceed for 4 hours at 30° C.
IC50 values for compounds were determined using seven different [I]. […]

pEC50, pIC50: −log10 of the molar value.

T1 sequence (Q9WMX2 2420-2992): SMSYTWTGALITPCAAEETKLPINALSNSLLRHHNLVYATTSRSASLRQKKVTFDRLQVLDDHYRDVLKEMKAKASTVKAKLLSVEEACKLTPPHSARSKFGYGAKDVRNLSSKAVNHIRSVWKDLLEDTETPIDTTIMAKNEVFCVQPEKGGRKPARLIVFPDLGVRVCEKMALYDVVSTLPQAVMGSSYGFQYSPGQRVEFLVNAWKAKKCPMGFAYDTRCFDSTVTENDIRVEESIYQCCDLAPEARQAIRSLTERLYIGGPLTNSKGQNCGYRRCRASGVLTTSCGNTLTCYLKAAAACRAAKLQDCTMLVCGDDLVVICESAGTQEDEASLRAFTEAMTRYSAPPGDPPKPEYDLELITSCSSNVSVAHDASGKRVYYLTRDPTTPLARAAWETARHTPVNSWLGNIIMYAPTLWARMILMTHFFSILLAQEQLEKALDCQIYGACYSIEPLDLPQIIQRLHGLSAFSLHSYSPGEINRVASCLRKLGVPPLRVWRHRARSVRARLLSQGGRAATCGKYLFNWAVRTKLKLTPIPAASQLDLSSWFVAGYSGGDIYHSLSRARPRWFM

As usually defined, the pEC50 is the negative decadic logarithm of the EC50, by convention in mol/L. What is called pIC50 is the negative decadic logarithm of the IC50, by convention in mol/L. For the molecule `COc1ccc2c(c1)C=C(c1cccc(N3CCOCC3)n1)Cn1c-2c(C2CCCCC2)c2ccc(C(=O)O)cc21`, in the test on HCV replicon cells, the pEC50 was less than 6.30. Also, on HCV NS5B, the pIC50 is less than 6.30.
Turning to `COc1ccc2c(c1)C=C(c1nccc(N(C)C)n1)Cn1c-2c(C2CCCCC2)c2ccc(C(=O)O)cc21`, the pEC50 in the test with HCV replicon cells is less than 6.30. Also, the pIC50 at HCV NS5B was less than 6.30.
Take `COc1ccc2c(c1)CC(c1cc(C(=O)N3CCOCC3)ccn1)Cn1c-2c(C2CCCCC2)c2ccc(C(=O)NS(=O)(=O)N(C)C)cc21` (stereo not drawn): the pEC50 in the test with HCV replicon cells is 6.30 to 8.34. For the same molecule, the pIC50 at HCV NS5B was 6.30 to 8.34.
As for `COc1ccc2c(c1)C1CC1(c1ncccc1C(=O)N1CCN(C)CC1)Cn1c-2c(C2CCCCC2)c2ccc(C(=O)NS(=O)(=O)N(C)C)cc21` (stereo not drawn), the pEC50 in the test with HCV replicon cells was 6.30 to 8.34. Also, on HCV NS5B, the pIC50 was 6.30 to 8.34.
For the molecule `COc1ccc2c(c1)C=C(c1ccccc1OC(F)F)Cn1c-2c(C2CCCCC2)c2ccc(C(=O)NS(=O)(=O)C(C)C)cc21`, the pEC50 with HCV replicon cells is less than 6.30. The pIC50 on HCV NS5B is 6.30 to 8.34.
Taken in the same sequence, the figures for `COc1ccc2c(c1)C=C(c1ccccc1)Cn1c-2c(C2CCCCC2)c2ccc(C(=O)NS(=O)(=O)C(C)C)cc21` were less than 6.30 and 6.30 to 8.34.
For the molecule `COc1ccc2c(c1)C=C(c1ccccc1-c1noc(C)n1)Cn1c-2c(C2CCCCC2)c2ccc(C(=O)NS(=O)(=O)C(C)C)cc21`, in the test on HCV replicon cells, the pEC50 was 6.30 to 8.34. Besides, the pIC50 on HCV NS5B was 6.30 to 8.34.
Take `COc1ccc2c(c1)C=C(c1ccccc1S(=O)(=O)N(C)C)Cn1c-2c(C2CCCCC2)c2ccc(C(=O)NS(=O)(=O)C(C)C)cc21`: in the test with HCV replicon cells, the pEC50 is less than 6.30. For the same molecule, the pIC50 on HCV NS5B is 6.30 to 8.34.
On to `COc1ccc2c(c1)C=C(c1cc(C(F)(F)F)ccc1N1CCOCC1)Cn1c-2c(C2CCCCC2)c2ccc(C(=O)NS(=O)(=O)C(C)C)cc21`, for which the pEC50 in the test with HCV replicon cells is less than 6.30. For the same molecule, at HCV NS5B, the pIC50 was less than 6.30.
On to `COc1ccc2c(c1)C=C(c1ccccc1NC(=O)C1CC1)Cn1c-2c(C2CCCCC2)c2ccc(C(=O)NS(=O)(=O)C(C)C)cc21`, for which the pEC50 in the test on HCV replicon cells is 6.30 to 8.34. Also, the pIC50 on HCV NS5B was 6.30 to 8.34.
Consider `COc1ccc2c(c1)C=C(c1ccccc1OCCN1CCOCC1)Cn1c-2c(C2CCCCC2)c2ccc(C(=O)NS(=O)(=O)C(C)C)cc21`, for which the pEC50 in the test on HCV replicon cells is 6.30 to 8.34. Moreover, the pIC50 on HCV NS5B was 6.30 to 8.34.
Turning to `COc1ccc2c(c1)C=C(c1ccccc1OCCN(C)C)Cn1c-2c(C2CCCCC2)c2ccc(C(=O)NS(=O)(=O)C(C)C)cc21`, the pEC50 with HCV replicon cells was 6.30 to 8.34. On HCV NS5B, the pIC50 is 6.30 to 8.34.
With `COc1ccc2c(c1)C=C(c1ccccc1CS(C)(=O)=O)Cn1c-2c(C2CCCCC2)c2ccc(C(=O)NS(=O)(=O)C(C)C)cc21`, the pEC50 in the test with HCV replicon cells was 6.30 to 8.34. Also, the pIC50 at HCV NS5B was 6.30 to 8.34.
Regarding `COc1ccc2c(c1)C=C(c1cccc(OCCN(C)C)c1)Cn1c-2c(C2CCCCC2)c2ccc(C(=O)O)cc21`, the pEC50 in the test with HCV replicon cells is less than 6.30. The pIC50 on HCV NS5B is 6.30 to 8.34.
Consider `COc1ccc2c(c1)C=C(c1cccc(OCCN3CCOCC3)c1)Cn1c-2c(C2CCCCC2)c2ccc(C(=O)O)cc21`, for which the pEC50 in the test with HCV replicon cells was less than 6.30. In addition, the pIC50 on HCV NS5B is 6.30 to 8.34.
Taken in the same sequence, the figures for `COc1ccc2c(c1)C=C(c1ccccc1S(=O)(=O)N(C)CCN(C)C)Cn1c-2c(C2CCCCC2)c2ccc(C(=O)NS(=O)(=O)C(C)C)cc21` were 6.30 to 8.34 and 6.30 to 8.34.
In the same order, the values of `COc1ccc2c(c1)C=C(c1ccccc1CN1CCOCC1)Cn1c-2c(C2CCCCC2)c2ccc(C(=O)NS(=O)(=O)C(C)C)cc21` are 6.30 to 8.34 and 6.30 to 8.34.
As for `COc1ccc2c(c1)C=C(c1cccc(OCCN(C)C)c1)Cn1c-2c(C2CCCCC2)c2ccc(C(=O)NS(=O)(=O)C(C)C)cc21`, the pEC50 with HCV replicon cells is less than 6.30. Also, at HCV NS5B, the pIC50 was 6.30 to 8.34.
